Assay results reported in patent US7407988B2, “Carbamic acid compounds comprising a sulfonamide linkage as HDAC inhibitors” (Topotarget UK Limited, priority 2000, dated 2008).
pIC50: −log10 of the molar value. Where two headings read alike, the source gives them in different places.

Columns and labels:
[1] = test system: K11 HPV E7 transformed human keratinocyte line; assay: Secondary assay: cell proliferation WST-1, K11; assay type: cell-based; details: Homo sapiens, Keratinocyte; for pIC50: Table 2, 48 h, read-out: Cell Proliferation Inhibition WST-1 (IC50 unless otherwise specified) K11
[2] = test system: HeLa cells; assay: Secondary assay: cell proliferation WST-1, HeLa; assay type: cell-based; details: Homo sapiens, read-out: Cell Proliferation Inhibition WST-1 (IC50 unless otherwise specified) HeLa
[3] = test system: HDAC (HeLa cell extract); assay: Primary assay: deacetylase activity, HeLa cell extract as source of HDAC; assay type: biochemical, human
Description: Briefly, this assay relies on the release of radioactive acetate from a radioactively labelled histone fragment by the action of HDAC enzyme. Test compounds, which inhibit HDAC, reduce the yield of radioactive acetate. Signal (e.g., scintillation counts) measured in the presence and absence of a test compound provide an indication of that compound's ability to inhibit HDAC activity. Decreased activity indicates increased inhibition by the test compound.
The histone fragment was an N-terminal sequence from histone H4, and it was labelled with radioactively labelled acetyl groups using tritiated acetylcoenzyme A (coA) in conjunction with an enzyme which is the histone acetyltransferase domain of the transcriptional coactivator p300. […] The acetylated peptide was then separated from free acetyl coA by size exclusion chromatography on Sephadex G-15 (Sigma G-15-120), using distilled H2O as the mobile phase.
After purification of the radiolabelled histone fragment, it was incubated with a source of HDAC (e.g., an extract of HeLa cells (a rich source of HDAC), recombinantly produced HDAC1 or HDAC2) and any released acetate was extracted into an organic phase and quantitatively determined using scintillation counting. By including a test compound with the source of HDAC, that compound's ability to inhibit the HDAC was determined.
Two cell volumes of extraction buffer were used, and particulate material was centrifuged out (20800 g, 4° C., 10 min). The supernatant extract having deacetylase activity was aliquotted and frozen for storage.
A source of HDAC (e.g., 2 μL of crude HeLa extract, 5 μL of HDAC1 or HDAC2; in elution buffer, as above) was incubated with 3 μL of radioactively labelled peptide along with appropriate dilutions of candidate compounds (1.5 μL) in a total volume of 150 μL of buffer (20 mM Tris pH 7.4, 10% glycerol). The reaction was carried out at 37° C. for one hour, after which the reaction was stopped by adding 20 μL of 1 M HCl/0.4 M sodium acetate. […] Radioactivity was measured using a Tri-Carb 21 00TR Liquid Scintillation Analyzer (Packard).
Percent activity (% activity) for each test compound was calculated as: % activity={(S^C−B)/(S°−B)}×100 wherein S^C denotes signal measured in the presence of enzyme and the compound being tested, S° denotes signal measured in the presence of enzyme but in the absence of the compound being tested, and B denotes the background signal measured in the absence of both enzyme and compound being tested.

[4] = test system: JURKAT human T-cell line; assay: Secondary assay: cell proliferation WST-1, Jurkat; assay type: cell-based; details: Homo sapiens, Table 2, 48 h, read-out: Cell Proliferation Inhibition WST-1 (IC50 unless otherwise specified) Jurkat
[5] = Table 1, read-out: HDAC Inhibition (IC50 unless otherwise specified) HeLa
[6] = comparative tables, HDAC inhibition, read-out: HeLa IC50

Row | SMILES | pIC50 [1] | pIC50 ([2]; Table 2, 48 h) | melting point | pIC50 [3, 5] | pIC50 [3, 6] | pIC50 [4] | inhibition at 20 µM ([1]; Table 2, @ 20 μM, 48 h) | pIC50 ([2]; 48 h)
1 | O=C(/C=C/c1cccc(S(=O)(=O)NCc2ccccc2)c1)NO [PX106511] | 5.60 | 6.42 | 179 °C | 7.46 | 7.46 | 6.63 |  | 
2 | O=C(/C=C/c1cccc(S(=O)(=O)NCc2cccc3ccccc23)c1)NO [PX117225, N-Hydroxy-3-{3-[(naphthalen-1-ylmethyl)sulfamoyl]-phenyl}-acrylamide] |  |  | 177 °C | 6.19 | 6.19 | 5.48 | 26% | 4.92
3 | O=C(/C=C/c1cccc(S(=O)(=O)NCc2ccc3c(c2)OCO3)c1)NO [PX117226, 3-{3-[(Benzo[1,3]dioxol-5-ylmethyl)-sulfamoyl]-phenyl}-N-hydroxy-acrylamide] | 5.55 | 6.30 | 163 °C | 7.58 |  | 7.00 |  | 
4 | COc1ccccc1NS(=O)(=O)c1cccc(/C=C/C(=O)NO)c1 [PX117227, N-Hydroxy-3-[3-(2-methoxy-phenylsulfamoyl)-phenyl]-acrylamide] | 5.33 | 5.92 | 181 °C | 7.30 |  | 6.44 |  | 
5 | O=C(/C=C/c1cccc(NS(=O)(=O)/C=C/c2ccccc2)c1)NO [PX117446, N-Hydroxy-3-{3-[(E)-2-phenylethenesulfonylamino]phenyl}acrylamide] | 5.43 | 5.22 | 171 °C | 7.74 | 7.74 | 6.37 |  | 
6 | O=C(/C=C/C#Cc1ccc(S(=O)(=O)Nc2ccccc2)cc1)NO [PX117453, E-5-(4-Phenylsulfamoylphenyl)pent-2-en-4-ynoic acid hydroxyamide] | 5.38 | 5.24 | 161 to 163 °C | 7.35 | 7.35 | 5.96 |  | 
7 | O=C(/C=C/c1cccc(S(=O)(=O)NCc2ccco2)c1)NO [PX117710, 3-{3-[(Furan-2-ylmethyl)-sulfamoyl]-phenyl}-N-hydroxyacrylamide] | 5.40 | 5.30 | 165 °C | 6.90 |  | 6.38 |  | 
8 | COc1cccc(NS(=O)(=O)c2cccc(/C=C/C(=O)NO)c2)c1 [PX117712, N-Hydroxy-3-[3-(3-methoxy-phenylsulfamoyl)-phenyl]-acrylamide] | 6.19 | 5.96 | 137 °C | 7.85 |  | 6.89 |  | 
9 | O=C(/C=C/c1cccc(S(=O)(=O)Nc2ccc(-c3ccccc3)cc2)c1)NO [PX117715, 3-[3-(Biphenyl-4-ylsulfamoyl)-pheny]-N-hydroxy-acrylamide] | 6.03 | 5.82 | 188 °C | 8.00 |  | 6.54 |  | 
10 | O=C(/C=C/c1cccc(S(=O)(=O)Nc2cccc(Br)c2)c1)NO [PX117734, 3-[3-(3-Bromo-phenylsulfamoyl)-phenyl]-N-hydroxy-acrylamide] | 6.06 | 5.68 | 135.5 to 136.5 °C | 8.10 |  | 7.10 |  | 
11 | O=C(/C=C/c1cccc(S(=O)(=O)NC(c2ccccc2)c2ccccc2)c1)NO [PX117773, 3-[3-(Benzhydryl-sulfamoyl)-phenyl]-N-hydroxy-acrylamide] | 5.21 | 5.47 | 180 °C | 7.17 |  | 5.92 |  | 
12 | O=C(/C=C/c1cccc(S(=O)(=O)NC(Cc2ccccc2)c2ccccc2)c1)NO (centres unmarked) [PX117774, 3-[3-(1,2-Diphenyl-ethylsulfamoyl)-phenyl]-N-hydroxy-acrylamide] | 5.15 | 5.19 | 150 °C | 6.40 |  | 6.00 |  | 
13 | O=C(/C=C/c1cccc(S(=O)(=O)Nc2ccc(OC(F)(F)F)cc2)c1)NO [PX117775, N-Hydroxy-3-[3-(4-trifluoromethoxy-phenylsulfamoyl)-phenyl]-acrylamide] | 5.28 | 5.68 | 131 °C | 7.80 |  | 6.28 |  | 
14 | COc1ccc(S(=O)(=O)Nc2cccc(/C=C/C(=O)NO)c2)cc1OC [PX117780, 3-[3-(3,4-Dimethoxy-benzenesulfonylamino)-phenyl]-N-hydroxy-acrylamide] | 4.98 | 4.77 | 158 °C | 6.90 |  | 5.40 |  | 
15 | O=C(/C=C/c1cccc(NS(=O)(=O)c2ccc(-c3ccccc3)cc2)c1)NO [PX117781, 3-[3-(Biphenyl-4-sulfonylamino)-phenyl]-N-hydroxy-acrylamide] | 5.66 | 5.47 | 115 °C | 7.24 |  | 6.10 |  | 
16 | COc1ccc(NS(=O)(=O)c2cccc(/C=C/C(=O)NO)c2)cc1OC [PX117782, 3-[3-(3,4-Dimethoxy-phenylsulfamoyl)-phenyl]-N-hydroxy-acrylamide] | 4.81 | 5.54 | 191 °C | 7.42 |  | 6.46 |  | 
17 | O=C(/C=C/c1cccc(S(=O)(=O)Nc2ccccc2F)c1)NO [PX117787, 3-[3-(2-Fluoro-phenylsulfamoyl)-phenyl]-N-hydroxy-acrylamide] | 5.92 | 5.59 | 102 to 103 °C | 7.17 |  | 6.30 |  | 
18 | O=C(/C=C/c1cccc(S(=O)(=O)Nc2cccc(F)c2)c1)NO [PX117788, 3-[3-(3-Fluoro-phenylsulfamoyl)-phenyl]-N-hydroxy-acrylamide] | 5.77 | 5.70 | 130 to 133 °C | 7.44 |  | 6.54 |  | 
19 | O=C(/C=C/c1cccc(S(=O)(=O)Nc2ccc(OC(F)F)cc2)c1)NO [PX117789, 3-[3-(4-Difluoromethoxy-phenylsulfamoyl)-phenyl]-N-hydroxy-acrylamide] | 6.10 | 5.96 | 91 to 93 °C | 7.52 |  | 6.52 |  | 
20 | COc1ccc(C(F)(F)F)cc1NS(=O)(=O)c1cccc(/C=C/C(=O)NO)c1 [PX117791, N-Hydroxy-3-[3-(2-methoxy-5-trifluoromethyl-phenylsulfamoyl)-phenyl]-acrylamide] | 5.17 | 5.44 | 207 °C (dec.) | 6.60 |  | 5.89 |  | 
